Laboratory results from patent US20160122315A1, “CRYSTALLINE IMATINIB MESYLATE PROCESS” (SHILPA MEDICARE LIMITED, priority 2013, published 2016).
Where two headings read alike, the source gives them in different places.

How the values were obtained:
[1] = Hygroscopicity of crystalline Form-SA; type: physicochemical; details: crystalline solid
[2] = crystal forms disclosed by Zimmermann et al, U.S.'051; cited from earlier work
[3] = compared with the α-crystal form; disclosed in U.S.'051; cited from earlier work

| SMILES | hygroscopicity [1] | hygroscopicity [2] | thermodynamic stability [3] |
| --- | --- | --- | --- |
| Cc1ccc(NC(=O)c2ccc(CN3CCN(C)CC3)cc2)cc1Nc1nccc(-c2cccnc2)n1 [Form-SA, 4-[(4-Methyl-1-piperazinyl)methyl]-N-[4-methyl-3-[[4-(3-pyridinyl)-2-pyrimidinyl]amino]-phenyl]benzamide methanesulfonate] | non-hygroscopic | – | – |
| CS(=O)(=O)O.Cc1ccc(NC(=O)c2ccc(CN3CCN(C)CC3)cc2)cc1Nc1nccc(-c2cccnc2)n1 [a-crystal form] | – | hygroscopic | – |
| CS(=O)(=O)O.Cc1ccc(NC(=O)c2ccc(CN3CCN(C)CC3)cc2)cc1Nc1nccc(-c2cccnc2)n1 [β-crystal form] | – | less hygroscopic than the α-crystal form | thermodynamically more stable at temperatures below 140 °C |
